These results are taken from patent EP2862852B1, “Urea derivatives for the protection of stem cells” (Symrise AG, priority 2013, dated 2015).

One may read the IC50 as the concentration that gives 50% inhibition. In general, inhibition refers to the relative decrease from the control value, in per cent.

For one test, the target named is T1, 20S proteasome (Homo sapiens, UniProt P28074).
T1 construct: NHDF (normal human dermal fibroblasts) cells are disseminated in a 96-well microtiter plate; endogenous in cells; host or cells: NHDF (normal human dermal fibroblasts)
Put plainly: 20S Proteasome Assay (in vitro), chymotrypsin-like protease activity in NHDF cells. It is filed as cell-based. The note with it: 72 h.

The subject of test [1] is B16V mouse melanoma cells. In words: Depigmentation effect on melanoma cell cultures. The settings on record: 0.6 mM tyrosine and 10 nM α-MSH, 96 h, read-out: IC50, inhibition of pigmentation. The class given is cell-based. The protocol:
B16V mouse melanoma cells are disseminated in a 96-well micro-titre plate in a concentration of 7.5 x 10^3 cells/well. After cultivation for 24 h at 37°C and 5% CO2 in RPMI medium, enriched with 10% foetal calf serum, various concentrations of the test substances and 0.6 mM tyrosine and 10 nM α-MSH (α-melanocyte stimulating hormone) are added and incubated for a further 96 h. The maximum concentration of the test substances used corresponds to 0.1 times the value of the IC20 value of the cytotoxicity assay. Only tyrosine and α-MSH are added to the controls. After incubation, sodium hydroxide solution (final concentrations: 1 M) is added to the culture medium and the absorption (A) is measured after 3 h at 400 nm.
From the inhibition of pigmentation (%) in a series of dilutions of test compounds, the IC50 for each test compound is calculated. This is the concentration of a test compound at which pigmentation is inhibited by 50%.

The next test concerns SIRT1. Put plainly: SIRT1 assay (in vitro), SIRT1 expression by immunofluorescence in NHDF cells. The class given is cell-based, human. The settings on record: 10 µM, 48 h, mean values of at least 2 independent experiments. The protocol:
NHDF cells (normal human dermal fibroblasts) were seeded in 96-well plates. After 24 h cultivation at 37 °C and 5% CO2 in DMEM (Dulbecco's Modified Eagle Medium), cells were treated with test substances for another 48 h. After washing the cells with PBS (phosphate buffered saline), the cells were fixed with paraformaldehyde and permeabilized. Then they were washed again and blocked with BSA (bovine serum albumen), followed by incubation with […]. After extensive washing, the fluorescence is measured in a microplate reader and fluorescence images were recorded on a fluorescence microscope with an attached […].
The stimulation of SIRT1 expression was calculated by: Stimulation of SIRT1expression[%] = ((RFU test substance−RFU background)/(RFU control−RFU background) × 100)−100 [formula] • RFU test substance = relative fluorescent units of the wells with test substance, stained completely • RFU control = relative fluorescent units of the wells without test substance, stained completely • RFU background = relative fluorescent units of the wells without test substance, stained only with secondary antibody.

The test system of test [2] is HHFSC (Human Hair Follicle Stem Cells). Put plainly: Stem cell protection (in vitro): inhibition of UVB-induced apoptosis, caspase 3/7 chemiluminescence. It is filed as cell-based. The settings on record: light or radiation study, 25 mJ/cm^2 UVB, relative to control, read-out: Inhibition of UV induced apoptosis. The protocol:
HHFSC (Human Hair Follicle Stem Cells) isolated from hair follicle bulge (Celprogen) were cultivated in culture ware pre-coated with Human Hair Follicle Stem Cell Extra-cellular Matrix (Celprogen). The cells were incubated 2 h prior to and 16 h after UVB irradiation with test compounds. Cells were irradiated with 25 mJ/cm^2 UVB in the presence of buffer solution. Apoptosis induction was evaluated by caspase 3/7 protein expression (Caspase-Glo 3/7, Promega) and quantified by chemiluminescence measurement.

A further test deals with Hyaluronic acid. Put plainly: Hyaluronic Acid Assay (in vitro), competitive ELISA in NHDF cells. The settings on record: 72 h. It is filed as cell-based, human. The protocol:
NHDF (normal human dermal fibroblasts) cells were disseminated in a 96-well microtiter plate in a concentration of 2 x 10^4 cells/well (DMEM, 10% FCS). After cultivation in fully enriched medium (DMEM, 10% FCS) for 48 h at 37°C and 5% CO2, the serum content was reduced to 0.1% to synchronize the cell cycle. Various concentrations of the test substances and TGF-beta1 as internal standard are added and incubated for a further 72 h. The maximum concentration of the test substances used corresponds to 0.2 times the value of the IC20 value of the cytotoxicity assay. Hyaluronic acid is quantified by a competitive ELISA (TECOmedical TE1017).
The percent bound for each standard and unknown substance is calculated using the following equation: HA_[ng/ml] = (Astandardortestsubstance −Ablank)/(Azerostandard −Ablank) [formula] The abbreviations have the following meanings: • A(standard or test substance): Absorption of the wells with standard or test substance • A(zero standard): Absorption of the wells without HA standard • A(blank): Absorption of the wells without antibody, without peroxidase conjugate A standard curve is generated by plotting the percent B/ B0 as a function of the log HA concentration. The HA amount in the unknown samples is calculated by interpolating from the percent B / B0 values to […]. InductionofHA[%] = ((HAtestsubstance −HAwithoutcells)/(HAcontrol −HAwithoutcells) × 100) [formula] The abbreviations have the following meanings: • HA test substance: Amount of HA of the wells with test substance and with cells • HA control: Amount of HA of the wells without test substance, but with cells • HA without cells Amount of HA of the wells without cells

The next test deals with Heme oxygenase-1. In words: Heme oxygenase-1 expression (in vitro), Western blot in NHDF cells. The class given is cell-based, human. The note with it: 24 h. The protocol:
NHDF (normal human dermal fibroblasts) cells were disseminated in a 6-well plate. After cultivation in fully enriched medium (DMEM, 10% FCS) for 48 h, the serum content was reduced to 0.1% to synchronize the cell cycle. Various concentrations of the test substances, the negative control (untreated cells) and tert.- butylhydrochinon as positive control, are added and incubated for a further 24 h. After cell lysis, the protein amount was determined using the Biorad BCA assay. All samples were adjusted to the same protein level before application on a fast Criterion Gel (Biorad) to perform electrophoresis for 20 minutes at 300 V. Thereafter the proteins were transferred to a PVDF membrane on a semi-dry blotter (30 minutes, 25 V). The blotted membrane is blocked for 4 hours in a 5% milk powder solution in TBST at 4°C. After washing, the membrane is incubated with the first antibody solution HO-1 from abcam (1:500 in 1% milk powder in TBST) over night. After this, washing is repeated and the membrane has to be incubated for 1 h in the second antibody solution (goat anti mouse coupled to HRP; 1:800 in 1% milk powder). […] The resulting band pattern is detected with a chemiluminescence sensitive camera system (Vilber Loumat). The quantification was done by densitometry. The up-regulation is calculated relative to control.
Background: In western blotting, separated proteins are transferred to a membrane and probed.

Read-outs that look alike come from different tables or passages of the source.

For “1,3-bis(2-methylcyclohexyl)urea [Compound 7]”, on 20S proteasome (600 µM), the “20S proteasome stimulation relative to control” value was determined as 85%.
For `C[C@@H]1CCCC[C@H]1NC(=O)NCC1CCCCC1` (relative stereo) [Compound 4, 1-(cyclohexylmethyl)-3-(trans-2-methylcyclohexyl) urea], the IC50 in test [1] (Mus musculus) worked out at 14.6 µM.
Consider `O=C(NC1CCCCC1)NC1CCCCC1` [Compound 1, 1,3-dicyclohexylurea], for which the “20S proteasome stimulation relative to control” value on 20S proteasome (600 µM) came out at 83%. This molecule also had an SIRT1 protein induction in the test with SIRT1 of 34%.
On to `CCC(C)NC(=O)NC1CCCCC1` (stereo not drawn) [Compound 2, 1-cyclohexyl-3-sec-butyl-urea], for which the “20S proteasome stimulation relative to control” value on 20S proteasome (600 µM) came out at 105%. In addition, the IC50 in test [1] (Mus musculus) turned out to be 290 µM. This molecule also displayed an SIRT1 protein induction in the test with SIRT1 of 57%.
Turning to `CCCCCCNC(=O)NC1CCCCC1` [Compound 3, 1-cyclohexyl-3-hexyl-urea], in test [1] (Mus musculus), the IC50 worked out at 18 µM.
On to `CCCCC(CC)CNC(=O)NC1CCCCC1` (stereo not drawn) [Compound 5, 1-cyclohexyl-3-(2-ethylhexyl)urea], for which the inhibition at 20 µM in test [2] (0.02 mM) amounted to 20.4%. Besides, in test [2] (0.2 mM), the inhibition at 200 µM turned out to be 95.3%. Also, the “20S proteasome stimulation relative to control” value on 20S proteasome (780 µM) is reported as 37%. Also, the figures for the “Hyaluronic acid stimulation relative to control” value in the test on Hyaluronic acid (0.1 µM), in the test with Hyaluronic acid (0.5 µM) and with Hyaluronic acid (5 µM) were 67%, 51% and 39%, respectively. In test [1] (Mus musculus), the IC50 was found to be 12.6 µM. This molecule showed an SIRT1 protein induction in the test with SIRT1 of 19%. Also, the “HO-1 up-regulation relative to control” value with Heme oxygenase-1 (250 µM) is reported as 10.2-fold.
With `CC(C)CN(C)C(=O)NC1CCCCC1` [Compound 6, 3-cyclohexyl-(1-iso-butyl-1-methyl)-urea], at 20S proteasome (23.5 µM), the “20S proteasome stimulation relative to control” value is recorded as 39%.
In the case of `O=c1cc(CO)occ1O` [Kojic acid, 5-hydroxy-2-hydroxymethyl-4-pyranone, reference compound], in test [1] (Mus musculus), the IC50 was 452 µM.
For the molecule `OC[C@H]1O[C@@H](Oc2ccc(O)cc2)[C@H](O)[C@@H](O)[C@@H]1O` [beta-Arbutin, reference compound], the half-maximal inhibitory concentration (IC50) in test [1] turned out to be 67 µM.
Take `CC(C)(C)c1cc(O)ccc1O` [tert.-butylhydrochinon, tert.- butylhydrochinon, reference compound]: the “HO-1 up-regulation relative to control” value in the test on Heme oxygenase-1 (25 µM) is on record as 24.2-fold.
